22 molecules from patent US8258159B2, “Inhibitors of the α2β1/GPIa-IIa integrin” (The Trustees Of The University Of Pennsylvania, priority 2005, dated 2012) can be followed below.

*1 amine or outer side, *2 acyl side, *3 side chain or, on linkers, in order; H or OH if unused. Where a SMILES comes first, the peptide text is derived from it. Side-chain parts run from the residue outwards. [ ]: non-standard residue; d: D form. The star is where a group is joined. Tos = Cc1ccc(S(=O)(=O)*)cc1; Dap = NC[C@H](N)C(=O)O; CO = O=C([*:1])[*:2]; NHBn = c1ccc(CN*)cc1; Bz = O=C(c1ccccc1)*

T1 sequence (P17301 30-1181): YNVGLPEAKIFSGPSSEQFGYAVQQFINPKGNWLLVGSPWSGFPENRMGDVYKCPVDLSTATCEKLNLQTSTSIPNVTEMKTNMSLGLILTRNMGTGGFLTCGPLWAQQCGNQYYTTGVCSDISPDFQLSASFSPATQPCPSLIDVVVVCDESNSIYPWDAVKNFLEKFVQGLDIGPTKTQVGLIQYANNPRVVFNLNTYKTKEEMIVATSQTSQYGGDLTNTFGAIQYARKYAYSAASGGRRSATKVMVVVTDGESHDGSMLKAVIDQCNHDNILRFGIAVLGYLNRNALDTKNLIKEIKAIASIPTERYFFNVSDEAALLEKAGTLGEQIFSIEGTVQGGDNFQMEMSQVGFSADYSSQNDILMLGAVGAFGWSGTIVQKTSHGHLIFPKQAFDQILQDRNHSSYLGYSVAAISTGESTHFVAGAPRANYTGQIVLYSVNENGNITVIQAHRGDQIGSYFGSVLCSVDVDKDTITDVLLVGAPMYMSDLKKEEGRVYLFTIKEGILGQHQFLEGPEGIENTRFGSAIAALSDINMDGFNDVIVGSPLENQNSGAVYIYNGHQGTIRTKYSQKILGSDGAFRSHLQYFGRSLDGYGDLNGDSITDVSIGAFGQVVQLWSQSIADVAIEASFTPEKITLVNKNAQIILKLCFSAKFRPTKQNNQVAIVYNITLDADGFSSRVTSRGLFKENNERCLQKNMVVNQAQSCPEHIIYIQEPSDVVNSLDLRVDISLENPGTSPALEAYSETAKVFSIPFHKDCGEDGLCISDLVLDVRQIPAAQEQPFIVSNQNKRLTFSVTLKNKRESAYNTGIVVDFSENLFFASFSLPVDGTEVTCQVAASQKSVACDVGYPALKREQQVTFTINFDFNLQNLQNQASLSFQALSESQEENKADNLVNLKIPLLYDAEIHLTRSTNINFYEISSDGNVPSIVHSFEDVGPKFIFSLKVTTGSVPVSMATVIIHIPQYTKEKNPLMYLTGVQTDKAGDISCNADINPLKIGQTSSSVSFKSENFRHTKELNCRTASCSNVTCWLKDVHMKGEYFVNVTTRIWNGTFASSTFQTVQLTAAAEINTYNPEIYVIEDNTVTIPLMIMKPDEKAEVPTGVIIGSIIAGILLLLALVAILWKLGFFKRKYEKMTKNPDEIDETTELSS
T1 sequence (P05556 21-798): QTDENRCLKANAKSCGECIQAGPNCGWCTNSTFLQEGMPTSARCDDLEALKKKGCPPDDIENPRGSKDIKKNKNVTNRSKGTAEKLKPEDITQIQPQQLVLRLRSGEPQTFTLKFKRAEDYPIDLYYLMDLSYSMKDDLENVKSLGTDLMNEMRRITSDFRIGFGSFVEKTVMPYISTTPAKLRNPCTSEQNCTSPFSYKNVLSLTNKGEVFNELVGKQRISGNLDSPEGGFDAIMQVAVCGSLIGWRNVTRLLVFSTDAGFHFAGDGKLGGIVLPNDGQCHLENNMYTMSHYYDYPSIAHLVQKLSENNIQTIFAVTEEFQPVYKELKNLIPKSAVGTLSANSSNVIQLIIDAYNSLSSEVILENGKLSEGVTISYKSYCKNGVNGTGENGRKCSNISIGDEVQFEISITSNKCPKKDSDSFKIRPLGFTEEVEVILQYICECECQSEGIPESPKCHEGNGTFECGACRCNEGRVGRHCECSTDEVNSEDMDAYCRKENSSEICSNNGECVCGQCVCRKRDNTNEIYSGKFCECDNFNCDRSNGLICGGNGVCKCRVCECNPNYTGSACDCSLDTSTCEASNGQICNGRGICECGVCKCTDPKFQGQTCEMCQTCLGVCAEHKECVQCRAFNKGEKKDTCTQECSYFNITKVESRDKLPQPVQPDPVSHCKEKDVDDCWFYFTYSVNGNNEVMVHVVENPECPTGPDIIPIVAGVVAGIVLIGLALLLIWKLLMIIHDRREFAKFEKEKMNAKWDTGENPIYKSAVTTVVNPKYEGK
T4 sequence (P56199 29-1179): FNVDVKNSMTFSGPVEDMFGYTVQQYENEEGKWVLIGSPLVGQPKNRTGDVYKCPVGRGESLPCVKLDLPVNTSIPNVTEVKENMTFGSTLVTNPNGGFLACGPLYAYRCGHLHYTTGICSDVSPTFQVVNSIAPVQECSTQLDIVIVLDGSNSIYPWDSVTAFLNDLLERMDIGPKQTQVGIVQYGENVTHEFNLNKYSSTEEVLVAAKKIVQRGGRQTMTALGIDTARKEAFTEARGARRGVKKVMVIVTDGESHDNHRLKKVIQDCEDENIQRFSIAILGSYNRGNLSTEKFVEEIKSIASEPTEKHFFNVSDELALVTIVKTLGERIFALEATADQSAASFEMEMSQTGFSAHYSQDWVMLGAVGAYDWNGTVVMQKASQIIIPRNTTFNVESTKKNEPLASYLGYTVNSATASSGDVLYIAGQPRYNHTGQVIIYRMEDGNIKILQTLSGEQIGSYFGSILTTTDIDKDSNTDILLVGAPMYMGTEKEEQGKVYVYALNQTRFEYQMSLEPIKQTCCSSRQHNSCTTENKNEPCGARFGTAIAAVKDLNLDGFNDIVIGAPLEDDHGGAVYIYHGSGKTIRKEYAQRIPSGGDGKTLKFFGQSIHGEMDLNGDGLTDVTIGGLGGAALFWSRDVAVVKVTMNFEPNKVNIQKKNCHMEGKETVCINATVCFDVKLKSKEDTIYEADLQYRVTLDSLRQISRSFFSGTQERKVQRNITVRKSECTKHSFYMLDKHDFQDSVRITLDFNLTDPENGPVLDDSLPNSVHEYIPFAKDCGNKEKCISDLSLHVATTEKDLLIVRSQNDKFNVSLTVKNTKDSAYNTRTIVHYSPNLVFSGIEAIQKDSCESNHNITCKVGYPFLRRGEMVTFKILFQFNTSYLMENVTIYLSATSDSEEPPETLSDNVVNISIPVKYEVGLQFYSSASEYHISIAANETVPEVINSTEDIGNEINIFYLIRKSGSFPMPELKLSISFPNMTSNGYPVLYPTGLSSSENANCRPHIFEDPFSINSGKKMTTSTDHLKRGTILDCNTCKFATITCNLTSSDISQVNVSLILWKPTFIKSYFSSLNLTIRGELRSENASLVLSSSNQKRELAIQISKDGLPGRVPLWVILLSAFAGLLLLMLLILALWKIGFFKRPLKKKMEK
T4 sequence (P05556 21-798): as the sequence (P05556 21-798) above

One assay addresses T1, α2β1 integrin (Homo sapiens, UniProt P05556+P17301).
T1 construct: endogenous in cells; host or cells: gel-filtered human platelets of a single donor
The assay can be described thus: Platelet adhesion assay (human platelet adhesion to type I collagen). The format is cell-based. The following applies: human platelet adhesion to type I (soluble, monomeric) collagen, static conditions; single donor; read-out: IC50. As for the experimental part:
The inhibitory strength of the compounds of the present disclosure was analyzed as against platelet adhesion to type I collagen. Ninety-six well flat bottom microtiter plates (Immulon 2, Dynatech Laboratories, Chantilly, Va.) were coated with collagen, purified human fibrinogen, or bovine serum albumin, each dissolved in 50 mM NaHCO3 buffer, pH 8.0, containing 150 mM NaCl as previously described. See Bennett J S, Chan C, Vilaire G, Mousa S A, DeGrado W F. Agonist-Activated αvβ3 on Platelets and Lymphocytes Binds to the Matrix Protein Osteopontin. J Biol Chem. 272, 8137-814) (1997). Unoccupied protein binding sites on the wells were blocked with 5 mg/ml bovine serum albumin dissolved in the same buffer. Human platelets were isolated from blood anticoagulated with 0.1 volume 3.8% sodium citrate by gel-filtration using a 4 mM HEPES buffer, pH 7.4, containing 135 mM NaCl, 2.7 mM KCl, 5.6 mM glucose, 3.3 mM NaH2PO4, 0.35 mg/ml bovine serum albumin and various concentrations of CaCl2 or MgCl2 according to the experiment. One hundred μl aliquots of the gel-filtered platelet suspension containing 1-2×10^8 platelets were added to the protein-coated wells in the absence or presence of a platelet agonist. Following an incubation for 30 min at 37° C. without agitation, the plates were washed 4 times with the Tris-buffered NaCl, containing 2 mM MgCl2, pH 7.4, and the number of adherent platelets measured using the colorimetric assay reported by Bellavite P, Andrioli G, Guzzo P, et al. A colorimetric method for the measurement of platelet adhesion in microtiter plates. Anal Biochem. 216, 444-450 (1994). Briefly, 150 μl of a 0.1 M citrate buffer, pH 5.4, containing 5 mM p-nitrophenyl phosphate and 0.1% Triton X-100 was added to the wells after washing. After an incubation for 60 min at room temperature in the absence of ambient light, color was developed by the addition of 100 μl of 2N NaOH and, using EL800 Universal Microplate Reader (Bio-Tek Instruments, Inc., Winooski, Vt.), read in microtiter plate reader at 405 nm.
The potencies of the compounds of the present disclosure were determined by testing the ability of a range of concentrations of each compound to inhibit human platelet adhesion to soluble collagen under static conditions. Owing to the fact that soluble collagen is a specific ligand for α2β1 integrin, this is an accepted method of assessing α2β1 inhibition on platelets.
IC50 values were determined by using the platelets of a single donor. In cases where multiple assays were performed, the reported results reflect the average IC50 value derived from the separate assays.
For the molecule `O=C(NCc1ccccc1)NC[C@H](NC(=O)[C@@H]1CCCN1C(=O)c1ccccc1)C(=O)O` [Compound 26, 2-[(1-Benzoyl-pyrrolidine-2-carbonyl)-amino]-3-(3-benzyl-ureido)-propionic acid] (Bz-Pro-[Dap]([CO-NHBn])-OH), the IC50 came out at 1000 µM.
On to `Cc1ccc(S(=O)(=O)N2CCC[C@H]2C(=O)N[C@@H](CNC(=O)NCc2ccccc2)C(=O)O)cc1` [Compound 27, 3-(3-Benzyl-ureido)-2-{[1-(toluene-4-sulfonyl)-pyrrolidine-2-carbonyl]-amino}-propionic acid] (Tos-Pro-[Dap]([CO-NHBn])-OH), for which the concentration for half-maximal inhibition (IC50) came out at 0.036 µM.
As to `O=C(NCc1ccccc1)NC[C@H](NC(=O)[C@@H]1CCCN1S(=O)(=O)c1cccc2ccccc12)C(=O)O` [Compound 28], the IC50 came to 1.94 µM.
On to `O=C(NCc1ccccc1)NC[C@H](NC(=O)[C@@H]1CCCN1S(=O)(=O)c1ccc2ccccc2c1)C(=O)O` [Compound 29], for which the IC50 was 0.9 µM.
With `O=C(Cc1ccccc1)Nc1ccc(S(=O)(=O)N2CCC[C@H]2C(=O)N[C@@H](CNC(=O)NCc2ccccc2)C(=O)O)cc1` [Compound 32, 3-(3-Benzyl-ureido)-2-{[1-(4-phenylacetylamino-benzenesulfonyl)-pyrrolidine-2-carbonyl]-amino}-propionic acid], the IC50 was 0.236 µM.
Same read-out and setting: with `O=C(NCc1ccccc1)NC[C@H](NC(=O)[C@@H]1CCCN1S(=O)(=O)c1ccc(NC(=O)Nc2ccccc2)cc1)C(=O)O` [Compound 33, 3-(3-Benzyl-ureido)-2-({1-[4-(3-phenyl-ureido)-benzenesulfonyl]-pyrrolidine-2-carbonyl}-amino)-propionic acid] the figure was 0.151 µM; with `O=C(NCc1ccccc1)NC[C@H](NC(=O)[C@@H]1CCCN1S(=O)(=O)c1ccc2ccccc2c1)C(=O)O` [Compound 34, 3-(3-Benzyl-ureido)-2-{[1-(naphthalene-2-sulfonyl)-pyrrolidine-2-carbonyl]-amino}-propionic acid], 0.05 µM; with `O=C(NCc1ccccc1Cl)NC[C@H](NC(=O)[C@@H]1CCCN1S(=O)(=O)c1ccccc1)C(=O)O` [Compound 35, 2-[(1-Benzenesulfonyl-pyrrolidine-2-carbonyl)-amino]-3-[3-(2-chloro-benzyl)-ureido]-propionic acid], 0.107 µM.
On the same count and under the same terms, for `O=C(NC[C@H](NC(=O)[C@@H]1CCCN1S(=O)(=O)c1ccccc1)C(=O)O)Nc1ccccc1` [Compound 36, 2-[(1-Benzenesulfonyl-pyrrolidine-2-carbonyl)-amino]-3-(3-phenyl-ureido)-propionic acid] the value was 0.296 µM; for `O=C(CCc1ccccc1)NC[C@H](NC(=O)[C@@H]1CCCN1S(=O)(=O)c1ccccc1)C(=O)O` [Compound 37, 2-[(1-Benzenesulfonyl-pyrrolidine-2-carbonyl)-amino]-3-(3-phenyl-propionylamino)-propionic acid], 0.367 µM; for `O=C(NC[C@H](NC(=O)[C@@H]1CCCN1S(=O)(=O)c1ccccc1)C(=O)O)c1ccccc1` [Compound 38, 2-[(1-Benzenesulfonyl-pyrrolidine-2-carbonyl)-amino]-3-benzoylamino-propionic acid], 0.66 µM.
The same measure, in the same setting: with `O=C(NC[C@H](NC(=O)[C@@H]1CCCN1S(=O)(=O)c1ccccc1)C(=O)O)OCc1ccccc1` [Compound 39, 2-[(1-Benzenesulfonyl-pyrrolidine-2-carbonyl)-amino]-3-benzyloxycarbonylamino-propionic acid] the figure was 0.185 µM; with `COc1ccccc1CNC(=O)NC[C@H](NC(=O)[C@@H]1CCCN1S(=O)(=O)c1ccccc1)C(=O)O` [Compound 40, 2-[(1-Benzenesulfonyl-pyrrolidine-2-carbonyl)-amino]-3-[3-(2-methoxy-benzyl)-ureido]-propionic acid], 0.467 µM.
For `COc1cccc(CNC(=O)NC[C@H](NC(=O)[C@@H]2CCCN2S(=O)(=O)c2ccccc2)C(=O)O)c1` [Compound 41, 2-[(1-Benzenesulfonyl-pyrrolidine-2-carbonyl)-amino]-3-[3-(3-methoxy-benzyl)-ureido]-propionic acid], the IC50 was determined as 0.16 µM.
The same measure, in the same setting: for `CCCNC(=O)NC[C@H](NC(=O)[C@@H]1CCCN1S(=O)(=O)c1ccccc1)C(=O)O` [Compound 42, 2-[(1-Benzenesulfonyl-pyrrolidine-2-carbonyl)-amino]-3-{3-propyl-ureido)-propionic acid] the value was 0.367 µM; for `O=C(NCc1ccccc1)NC[C@H](NC(=O)[C@@H]1CCCN1S(=O)(=O)c1cc(F)cc(F)c1)C(=O)O` [Compound 43, 3-(3-Benzyl-ureido)-2-{[1-(3,5-difluoro-benzenesulfonyl)-pyrrolidine-2-carbonyl]-amino}-propionic acid], 0.035 µM; for `CS(=O)(=O)c1ccc(S(=O)(=O)N2CCC[C@H]2C(=O)N[C@@H](CNC(=O)NCc2ccccc2)C(=O)O)cc1` [Compound 44, 3-(3-Benzyl-ureido)-2-{[1-(4-methanesulfonyl-benzenesulfonyl)-pyrrolidine-2-carbonyl]-amino}-propionic acid], 0.07 µM.
On the same count and under the same terms, with `CC(C)(C)NC(=O)NC[C@H](NC(=O)[C@@H]1CCCN1S(=O)(=O)c1ccccc1)C(=O)O` [Compound 45, 2-[(1-Benzenesulfonyl-pyrrolidine-2-carbonyl)-amino]-3-(3-tert-butyl-ureido)-propionic acid] the figure was 0.185 µM; with `O=C(NCc1ccccc1)NC[C@H](NC(=O)[C@@H]1C[C@@H](OCc2ccccc2)CN1S(=O)(=O)c1ccccc1)C(=O)O` [Compound 46, 2-[(1-Benzenesulfonyl-4-benzyloxy-pyrrolidine-2-carbonyl)-amino]-3-(3-benzyl-ureido)-propionic acid], 0.24 µM; with `O=C(NCc1ccccc1)NC[C@H](NC(=O)[C@@H]1C[C@@H](O)CN1S(=O)(=O)c1ccccc1)C(=O)O` [Compound 47, 2-[(1-Benzenesulfonyl-4-hydroxy-pyrrolidine-2-carbonyl)-amino]-3-(3-benzyl-ureido)-propionic acid], 0.034 µM.
As to `O=C(NCc1ccccc1)NC[C@H](NC(=O)[C@@H]1CCCN1S(=O)(=O)c1cc(C(F)(F)F)cc(C(F)(F)F)c1)C(=O)O` [Compound 49, 3-(3-Benzyl-ureido)-2-{[1-(3,5-bis-trifluoromethyl-benzenesulfonyl)-pyrrolidine-2-carbonyl]-amino}-propionic acid], the IC50 was determined as 0.039 µM.
On the same count and under the same terms, for `O=C(NCc1ccccc1)NC[C@H](NC(=O)C1CCCCN1S(=O)(=O)c1ccccc1)C(=O)O` (stereo partly shown) [Compound 51, 2-[(1-Benzenesulfonyl-piperidine-2-carbonyl)-amino]-3-(3-benzyl-ureido)-propionic acid] the value was 0.056 µM.

The target of the next assay is T2, α2β1 (Homo sapiens, UniProt P05556+P17301).
T2 construct: Marcinkiewicz (Temple University, Philadelphia, Pa.); host or cells: K562
T2 sequence (P17301 30-1181): as the sequence (P17301 30-1181) above
T2 sequence (P05556 21-798): as the sequence (P05556 21-798) above
The assay can be described thus: Cell adhesion assay to assess specificity: α2-transfected K562 cells on collagen I. The format is cell-based.
Settings: not given
How it is done:
(§1) The ligands (3 μg/ml of collagen IV for […] or 3 μg/ml of collagen I for α2β1) for the test designed to assess the specificity of representative embodiments of the instant compounds for the α2β1 integrin were immobilized on 96-well flat microtiter plates (100 μl for each well) in PBS buffer solution overnight at 4° C. In the case of VCAM (3 μg/ml, for α4β1) and fibronectin (10 μg/ml, for α5β1), 20 mM acetic acid was used instead of PBS buffer solution. As those skilled in the art will recognize, VCAM is a known endothelial ligand for α4β1/VLA-4, and fibronectin is a known ligand for […]. In the case of α1β1 and α2β1, blocking was performed with 1% BSA in HBSS buffer solution containing Mg^2+ (but without Ca^2+) for 1 hour. In the case of α4β1 and α5β1, 1% BSA in HyQ HBSS buffer solution containing Ca^2+ and Mg^2+ was used. […] After centrifugation and washing with buffer solution containing 1% BSA, cells were re-suspended in same buffer solution (1×10^6 cells/ml) and incubated in the presence of a different concentration of inhibitors at room temperature for 15 minutes. Cells were added to the wells (100 μl/well) and incubated at 37° C. for 30 minutes. Unbound cells were washed out and bound cells were lysed by the addition of 0.5% Triton X-100.
(§2) The K562 cells expressing α5β1 integrin, Jurkat cells expressing α4β1, and K562 cells transfected with α1 and α2 integrins were provided by Dr. C. Marcinkiewicz (Temple University, Philadelphia, Pa.).
(§3) Plates were read using a Cytofluor 2350 fluorescence plate reader (Millipore, Bedford, Mass.) with a 485 nm (excitation) and 530 nm (emission).
In turn, `O=C(NCc1ccccc1)NC[C@H](NC(=O)[C@@H]1CCCN1S(=O)(=O)c1ccc2ccccc2c1)C(=O)O` [Compound 29] gave a 50% inhibitory concentration (IC50) of 177 nM.

The target of the next assay is T3, α4β1 (Homo sapiens, UniProt P05556+P13612).
T3 construct: Jurkat cells expressing α4β1; Marcinkiewicz (Temple University, Philadelphia, Pa.); host or cells: Jurkat
T3 sequence (P13612 34-1032): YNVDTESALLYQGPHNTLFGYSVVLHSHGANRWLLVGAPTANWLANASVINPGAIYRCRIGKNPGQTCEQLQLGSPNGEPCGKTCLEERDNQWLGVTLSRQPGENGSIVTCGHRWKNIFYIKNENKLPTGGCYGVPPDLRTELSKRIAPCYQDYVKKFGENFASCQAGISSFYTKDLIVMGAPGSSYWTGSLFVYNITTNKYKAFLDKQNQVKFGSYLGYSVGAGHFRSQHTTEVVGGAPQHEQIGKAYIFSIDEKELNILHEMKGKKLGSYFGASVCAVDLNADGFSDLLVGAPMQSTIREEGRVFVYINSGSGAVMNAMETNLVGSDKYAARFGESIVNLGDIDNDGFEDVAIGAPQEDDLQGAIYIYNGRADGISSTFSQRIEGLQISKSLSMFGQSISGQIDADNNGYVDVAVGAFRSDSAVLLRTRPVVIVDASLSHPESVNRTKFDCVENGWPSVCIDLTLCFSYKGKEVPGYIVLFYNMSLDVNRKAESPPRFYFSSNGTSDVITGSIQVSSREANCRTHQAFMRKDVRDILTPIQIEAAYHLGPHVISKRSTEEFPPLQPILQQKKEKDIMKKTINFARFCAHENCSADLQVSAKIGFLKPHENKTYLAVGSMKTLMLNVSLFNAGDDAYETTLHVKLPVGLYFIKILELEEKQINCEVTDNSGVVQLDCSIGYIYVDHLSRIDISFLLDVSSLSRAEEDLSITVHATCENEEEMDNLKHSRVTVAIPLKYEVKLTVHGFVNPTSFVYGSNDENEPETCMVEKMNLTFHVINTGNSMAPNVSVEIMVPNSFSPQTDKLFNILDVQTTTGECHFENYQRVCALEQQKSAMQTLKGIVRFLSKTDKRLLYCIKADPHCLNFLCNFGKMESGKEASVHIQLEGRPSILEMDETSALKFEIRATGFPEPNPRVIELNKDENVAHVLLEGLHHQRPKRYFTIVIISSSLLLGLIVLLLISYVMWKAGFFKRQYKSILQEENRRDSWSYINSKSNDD
T3 sequence (P05556 21-798): as the sequence (P05556 21-798) above
The assay can be described thus: Cell adhesion assay to assess specificity: Jurkat cells on VCAM. The class given is cell-based.
Settings: not given
How it is done:
as §1, §2, §3
`O=C(NCc1ccccc1)NC[C@H](NC(=O)[C@@H]1CCCN1S(=O)(=O)c1ccc2ccccc2c1)C(=O)O` [Compound 29] came in with an IC50 of 4330 nM.

A further assay has as its target T4, α1β1 (Homo sapiens, UniProt P05556+P56199).
T4 construct: Marcinkiewicz (Temple University, Philadelphia, Pa.); host or cells: K562
The assay can be described thus: Cell adhesion assay to assess specificity: α1-transfected K562 cells on collagen IV. The class given is cell-based. The following applies: read-out: % inhibition at 3 μM, α1β1. How it is done:
as §1, §2, §3
For `O=C(NCc1ccccc1)NC[C@H](NC(=O)[C@@H]1CCCN1S(=O)(=O)c1ccc2ccccc2c1)C(=O)O` [Compound 29], the inhibition at 3 µM was 30%.
